{"source": "patent US4957735A", "about": "“Target-sensitive immunoliposomes- preparation and characterization” (The University of Tennessee Research Corporation, priority 1987, dated 1990)", "key": {"HSV [1]": {"test_system": "HSV", "experiment": "Efficacy in inhibiting HSV replication in L929 cells (virus yield, TCID50 assay)", "format": "cell-based, HSV-1, HF strain", "settings": "HSV-infected L929 cells; for free drug amount required for comparable antiviral activity relative to TS immunoliposome encapsulated AraC: FIG. 7B", "method": "The HF strain of HSV-1 was propagated on Hep-2 cell. After 3 cycles of freeze and thawing of the virus infected cells, the virus released were isolated from the supernatant after palleting the cell debris at 1000 g for 10 min. These virus stock contained 1×10^8 pfu/ml and were stored in -70° C.\n(§1) Inhibitors were present throughout the assay. […] At 6 hr. […] At 42 hr."}, "[2]": {"experiment": "L929 cell toxicity assay ([3H]dT incorporation)", "settings": "mouse, l929 cells", "method": "(§2) As a measure of cytotoxicity, the drug concentration required to inhibit 50% of [^3 H]dT incorporation 42 hr. later (CD50) was determined.\n(§3) PI. […] At 42 hr. PI, the supernatant of the L929 cells was collected and titered for the virus yield. The toxicity of the drug on the general cell population was monitored by [^3 H]dT incorporation since both AraC and ACV inhibit the DNA synthesis.\n(§4) L929 cells at 75-80% confluency in 96-well Coster plates were infected with 0.1 multiplicity of infection (MOI) in McCoy's medium with 2% CS for 1 hr. Then the infection medium was removed and replaced with McCoy's medium containing 10% CS. For the target sensitivity assay (see below), L929 cells were grown in 35-mm six-well Linbro plates and a similar procedure was used to infect the L929 cell with various concentration of HSV, ranging from 0-10 MOI.\n(§5) HSV-infected L929 cells in 7-mm 96-well plates were used in these experiments and each experiment was performed in quadruplicate. At 3 hr. post infection (PI), the growth medium of infected or uninfected cell was removed, and replaced with 180 micro-l of either liposome-entrapped or free drug AraC or ACV containing medium.\n(§6) In the experiments where nucleoside-transport inhibitors were used, the inhibitors were added at 30 min. prior to the AraC-entrapped liposome addition. Inhibitors were present throughout the assay. For the control experiments, the infection medium was replaced with the fresh growth medium. At 6 hr. PI, 1 micro-Ci of [^3 H]dT was added in 20 micro-l for cytotoxicity assay (see below). Then incubation continued at 37° C. in a CO2 incubator. At 42 hr. PI, the growth medium was removed and immediately titered for the virus yield using the 50% tissue culture infective dose (TCID50) assay using Vero cells. The TCID50 assay was done in quadruplicates and the results were expressed in average ±S.D.\n(§7) Cytotoxicity of the L929 cells was determined by 20 labeling the cells at 6 hr. PI with [3H]dT. At 42 hr. PI, the growth medium was removed and the cells were washed with cold PBS for a total of three times. Then the DNA was precipitated with 5% trichloroacetic acid (TCA) at 4° C. After two cycles of 2 hr. incubation with fresh TCA, the precipitates at the bottom of the plates were washed one more time with 200 micro-l of fresh TCA. Finally, the precipitates were redissolved and dequenched with 1N NaOH overnight. The solubilized TCA precipitates were counted for tritium radioactivity. Data presented were the average ±S.D. of the quadruplicates."}, "L929 cells": {"test_system": "L929 cells", "experiment": "L929 cell toxicity assay ([3H]dT incorporation)", "settings": "for CD50 (drug concentration required to inhibit 50% of [3H]dT incorporation): 42 hr.", "method": "as §2, §3, §4, §5, §6, §7"}, "HSV [3]": {"test_system": "HSV", "experiment": "Repression of TS immunoliposome mediated therapeutic effect by nucleoside transport inhibitors (HSV yield, TCID50 assay)", "format": "cell-based, HSV-1, HF strain", "settings": "for repression of therapeutic effect of AraC-encapsulated TS immunoliposomes: Table II; for Log[HSV], with liposome: 0.1 microg/ml AraC in TS immunoliposomes", "method": "While not wishing to be bound by theory, it is believed that the surface deposition of TS immunoliposomes was followed by transport of liposome-released drugs into the cytosol via cellular nucleoside transporters. To test this hypothesis, the effect on virus replication of two nucleoside transport inhibitors, p-nitrothiobenzylinosine, and dipyridamole were investigated.\nPI was determined using the TCID50 assay described in Example 14\n^b HSV infected cells were treated with or without 0.1 microg/ml\n(ug/ml) of AraC encapsulated in the TS immunoliposomes.\nas §1"}, "[4]": {"biological_target": "nucleoside transport system", "settings": "cited from earlier work"}}, "note": "Like-named read-outs stand apart in the source and are kept apart here.", "data": [{"smiles": "Nc1ccn([C@@H]2O[C@H](CO)[C@@H](O)[C@@H]2O)c(=O)n1", "note": "[AraC, cytosine-beta-D-arabinoside]", "values": [{"measurement": "inhibition of virus replication", "setting": "HSV [1]", "result": "only a marginal effect on virus replication"}, {"measurement": "free drug amount required for comparable antiviral activity relative to TS immunoliposome encapsulated AraC", "setting": "HSV [1]", "result": "at least 1000 fold"}, {"measurement": "free drug amount required for comparable antiviral activity relative to TS immunoliposome encapsulated AraC", "setting": "HSV [1]; listed as free AraC", "result": "≥ 1000", "unit": "fold"}, {"measurement": "CC50 at 42 h", "setting": "[2]", "result": 0.0003, "unit": "µg/mL"}, {"measurement": "CD50 (drug concentration required to inhibit 50% of [3H]dT incorporation)", "setting": "L929 cells", "result": 0.3, "unit": "ng/mL"}, {"measurement": "cytotoxicity", "setting": "L929 cells; HSV-infected / host L929 cells", "result": "cytotoxic to infected cells"}, {"measurement": "cytotoxicity to uninfected cells", "setting": "L929 cells; uninfected control cells, [3H]dT incorporation", "result": "cytotoxic"}]}, {"smiles": "Nc1nc2c(ncn2COCCO)c(=O)[nH]1", "note": "[ACV, acycloguanosine]", "values": [{"measurement": "EC50", "setting": "HSV [1]; Human alphaherpesvirus 1, 42 hr. PI, FIG. 8, read-out: 50% effective dose (ED50), virus inhibition", "result": 1.1, "unit": "µg/mL"}, {"measurement": "CC50 at 42 h", "setting": "[2]", "result": 0.0125, "unit": "µg/mL"}, {"measurement": "CD50 (drug concentration required to inhibit 50% of [3H]dT incorporation)", "setting": "L929 cells", "result": 12.5, "unit": "ng/mL"}]}, {"smiles": "O=[N+]([O-])c1ccc(CSc2ncnc3c2ncn3[C@@H]2O[C@H](CO)[C@@H](O)[C@H]2O)cc1", "note": "[p-Nitrothiobenzylinosine, S-(p-Nitrobenzyl)-6-thioinosine]", "values": [{"measurement": "repression of therapeutic effect of AraC-encapsulated TS immunoliposomes", "setting": "HSV [3]", "result": "concentration dependent"}, {"measurement": "Log[HSV] Diff. (with vs without liposome)", "setting": "HSV [3]; inhibitor 12.5 nM", "result": 2.3}, {"measurement": "Log[HSV], without liposome", "setting": "HSV [3]; inhibitor 12.5 nM", "result": "5.1 ± 0.9"}, {"measurement": "Log[HSV], with liposome", "setting": "HSV [3]; inhibitor 12.5 nM", "result": "2.8 ± 0.8"}, {"measurement": "Log[HSV] Diff. (with vs without liposome)", "setting": "HSV [3]; inhibitor 100.0 nM", "result": 0.8}, {"measurement": "Log[HSV], without liposome", "setting": "HSV [3]; inhibitor 100.0 nM", "result": "4.6 ± 0.2"}, {"measurement": "Log[HSV], with liposome", "setting": "HSV [3]; inhibitor 100.0 nM", "result": "3.8 ± 0.4"}, {"measurement": "Ki", "setting": "[4]; competitive inhibitor", "result": 1, "unit": "nM"}]}, {"smiles": "OCCN(CCO)c1nc(N2CCCCC2)c2nc(N(CCO)CCO)nc(N3CCCCC3)c2n1", "note": "[Dipyridamole]", "values": [{"measurement": "repression of therapeutic effect of AraC-encapsulated TS immunoliposomes", "setting": "HSV [3]", "result": "concentration dependent"}, {"measurement": "Log[HSV] Diff. (with vs without liposome)", "setting": "HSV [3]; inhibitor 1.4 uM", "result": 1.6}, {"measurement": "Log[HSV], without liposome", "setting": "HSV [3]; inhibitor 1.4 uM", "result": "5.3 ± 0.3"}, {"measurement": "Log[HSV], with liposome", "setting": "HSV [3]; inhibitor 1.4 uM", "result": "3.7 ± 0.3"}, {"measurement": "Log[HSV] Diff. (with vs without liposome)", "setting": "HSV [3]; inhibitor 11.1 uM", "result": 1.4}, {"measurement": "Log[HSV], without liposome", "setting": "HSV [3]; inhibitor 11.1 uM", "result": "4.8 ± 0.3"}, {"measurement": "Log[HSV], with liposome", "setting": "HSV [3]; inhibitor 11.1 uM", "result": "3.4 ± 0.4"}, {"measurement": "Ki", "setting": "[4]; noncompetitive inhibitor", "result": 3000, "unit": "nM"}]}]}
